We go through one molecule from article doi:10.1101/203372v2 (biorxiv, 2017).

The target of this experiment is T1, GST-HDAC6, human, recombinant (recombinant HDAC6 WT) (Homo sapiens, UniProt Q9UBN7).
T1 sequence (Q9UBN7 1-1215): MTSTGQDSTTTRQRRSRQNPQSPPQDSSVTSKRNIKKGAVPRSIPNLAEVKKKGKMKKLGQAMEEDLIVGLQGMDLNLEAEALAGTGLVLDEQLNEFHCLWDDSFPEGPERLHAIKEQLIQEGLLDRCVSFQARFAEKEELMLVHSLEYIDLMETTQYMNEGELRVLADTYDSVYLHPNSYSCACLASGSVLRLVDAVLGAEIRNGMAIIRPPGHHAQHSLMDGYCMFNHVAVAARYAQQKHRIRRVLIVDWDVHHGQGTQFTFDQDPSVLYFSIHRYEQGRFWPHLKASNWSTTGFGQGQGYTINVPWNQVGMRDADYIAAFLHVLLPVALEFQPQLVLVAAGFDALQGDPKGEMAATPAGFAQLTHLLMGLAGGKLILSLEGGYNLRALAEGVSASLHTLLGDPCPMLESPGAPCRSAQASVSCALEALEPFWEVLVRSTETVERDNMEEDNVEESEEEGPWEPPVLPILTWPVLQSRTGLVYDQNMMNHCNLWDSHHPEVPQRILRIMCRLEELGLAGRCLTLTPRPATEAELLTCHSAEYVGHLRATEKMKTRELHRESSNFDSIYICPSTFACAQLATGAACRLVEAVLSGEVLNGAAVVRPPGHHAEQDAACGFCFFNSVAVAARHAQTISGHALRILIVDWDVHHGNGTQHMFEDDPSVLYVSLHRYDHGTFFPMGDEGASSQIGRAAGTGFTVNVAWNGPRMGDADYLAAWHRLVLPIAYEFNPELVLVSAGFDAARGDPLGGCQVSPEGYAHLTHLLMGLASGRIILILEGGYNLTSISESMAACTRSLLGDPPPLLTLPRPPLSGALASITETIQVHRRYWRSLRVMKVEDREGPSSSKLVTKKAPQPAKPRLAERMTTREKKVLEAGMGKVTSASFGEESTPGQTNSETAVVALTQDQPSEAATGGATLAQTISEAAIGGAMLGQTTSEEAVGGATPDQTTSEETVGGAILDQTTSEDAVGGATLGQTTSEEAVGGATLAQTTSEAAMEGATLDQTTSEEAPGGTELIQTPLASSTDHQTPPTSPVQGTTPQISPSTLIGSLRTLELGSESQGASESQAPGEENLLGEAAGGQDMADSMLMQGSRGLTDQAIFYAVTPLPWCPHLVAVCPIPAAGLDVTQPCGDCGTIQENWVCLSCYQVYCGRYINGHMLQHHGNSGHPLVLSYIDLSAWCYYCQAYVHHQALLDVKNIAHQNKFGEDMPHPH
Nature of the experiment: ELISA PPI competition, HDAC6 binding to immobilised His6-ubiquitin. Background: In an ELISA, binding on a coated surface is turned into a signal by an enzyme label.

Take `Cc1ccccc1OCCCn1cc(C=C2C(=N)N3N=CSC3=NC2=O)c2ccccc21` [compound 16]: the concentration for half-maximal inhibition (IC50) amounted to 78 µM.

As a reminder, the IC50 is the midpoint of a concentration-inhibition curve.
